From patent publication US8044042B2, “Thienotriazolodiazepine compound and medicinal use thereof” (Mitsubishi Tanabe Pharma Corporation, priority 2005, dated 2011)

Legend:
[1] = test system: CD28-dependent T cell growth; experiment: Mouse T cell proliferation stimulated with anti-CD28 antibody and PMA (tritiumthymidine uptake); format: cell-based
Procedure: The spleen was aseptically isolated from 6-7-week-old male BALB/c mice (CHARLES RIVER LABORATORIES JAPAN, INC.), and splenocyte suspension was prepared using RPMI1640 medium (manufactured by Sigma-Aldrich Ltd.). After hemolysis by a hypotonic treatment using a mixed solution of 0.83% aqueous ammonium chloride and Tris-HCl buffer (pH 7.65) at 9:1, a T cell concentrated fraction was obtained using a T cell concentrated column (manufactured by R&D systems). A cell suspension prepared using RPMI1640 medium containing 10% fetal calf serum (FCS, manufactured by Sigma-Aldrich Ltd.) was added to a flat-bottomed 96 well microtest plate (manufactured by Becton, Dickinson and Company) at 5×10^5 cells/well. Furthermore, a test compound diluted with a medium to the final concentration of 1-10000 nmol/L, 10 ng/mL PMA (manufactured by Sigma-Aldrich Ltd.) and 250 ng/mL anti-CD28 antibody (manufactured by BD pharmingen) were added, and the mixture was cultured under the conditions of 37° C., 5% carbon dioxide, 95% air for 20 hr. After the completion of culture, tritiumthymidine (specific activity: […], manufactured by MP Biochemicals) was added at 18.5 kBq/well, and the mixture was further cultured for 4 hr. Then, the cells were recovered in a glass fiber filter using a cell harvester (manufactured by Molecular Devices Corp.), the radioactivity taken into the cells was measured using a plate scintillation counter (microbeta 1460, manufactured by PerkinElmer), based on which the mouse T cell growth induced by stimulation with PMA and anti-CD28 antibody was measured. To be specific, suppressing rate (%)=(1−(radioactivity (cpm) of well added with test compound)/(radioactivity (cpm) of well without addition of test compound))×100 was calculated from the average amount of tritiumthymidine uptake (cpm) of T cells in each well added with various concentrations of test compound. In addition, based on the dose response curve obtained by plotting the average tritiumthymidine uptake amount (cpm) or suppressing rate on the vertical axis and the concentration on the transverse axis, the concentration of the compound (IC50) suppressing the value to 50% of that of the control group was determined by nonlinear regression.

[2] = test system: TYPE II Collagen-Induced Arthritis in DBA/1J Mouse; experiment: Type II collagen-induced arthritis in DBA/1J mouse; format: in vivo; conditions: 840 h, 3 mg/kg oral, 2 weeks from booster, average arthritis score at 35 days after primary immunization, P <0.05, read-out: suppressing rate (%) of arthritis score
Procedure: Bovine Type II collagen (purchased from collagen technical workshop) (100-200 μg) was mixed with complete Freund's adjuvant (manufactured by Sigma-Aldrich Ltd.) containing killed tuberculosis H37Ra. Using the resulting emulsion, 6 to 7-week-old male DBA/1J mice (CHARLES RIVER LABORATORIES JAPAN, INC.) were subcutaneously immunized at the tail root twice at 3 week intervals, whereby arthritis was developed. A test compound was suspended or dissolved in 0.5% carboxymethylcellulose (manufactured by Sigma-Aldrich Ltd.), and repetitively administered orally at a dose of 0.1-30 mg/kg body weight using an oral gavage needle for 2 weeks from the day of booster. As to this model, the symptoms of arthritis of four limbs were evaluated based on the following judgment criteria using the scores of from 0 to 4. The arthritis score of each mouse was shown by the total of the scores of four limbs (maximum: 16 points).
As regards the arthritis score, each group (n=5-6) was evaluated using an average value and mean error, with a group administered only with a vehicle being control, and Mann-Whitney U test was used for statistical analysis, wherein p value of 0.05 or below was determined to be significant. In the following, the suppressive action of the compound of the present invention on mouse collagen induced arthritis is shown by the suppressing rate (%) (1−(average arthritis score of compound administration group)/(average arthritis score of control group)×100) calculated from the average arthritis score at 35 days after the primary immunization.

[3] = test system: Biphasic Auricular Edema in Egg Albumin-Induced Mouse; experiment: Egg albumin-induced mouse biphasic auricular edema; format: in vivo
Procedure: Using saline (0.5 ml) containing egg albumin (10 μg, manufactured by Sigma-Aldrich Ltd.) and 1 mg of aluminum hydroxide gel, 6 to 7-week-old male BALB/c mice (CHARLES RIVER LABORATORIES JAPAN, INC.) were intraperitoneally immunized. Two weeks later, egg albumin (1.25 μg) was intradermally injected into the auricle of the mice for challenge, whereby biphasic auricular edema was induced 1 hr and 24 hr after the challenge. The compound of the present invention or a pharmaceutically acceptable salt thereof was suspended or dissolved in 0.5% carboxymethylcellulose, and repetitively administered orally at a dose of 0.01-30 mg/kg body weight for 3 days, from 2 days before the antigen challenge to the day of challenge, using an oral gavage needle. As for this model, the thickness of the auricle of the mouse was measured using a dial gauge (manufactured by Ozaki MFG. Co. Ltd.) and used as an index of auricular edema. As regards the thickness of the auricle, each group (n=8) was evaluated using an average value and mean error, with a group administered only with a vehicle being control, and t-test was used for statistical analysis, wherein p value of 0.05 or below was determined to be significant.

[4] = test system: Mouse Graft-Versus-Host Reaction (GvHR); experiment: Mouse graft-versus-host reaction (GvHR); format: in vivo; conditions: 30 mg/kg oral for 28 days from splenocyte injection; P <0.05 vs vehicle
Procedure: Cyclophosphamide (manufactured by Shionogi & Co., Ltd.) is administered to male BDF1 recipient mouse (8-week-old, CHARLES RIVER LABORATORIES JAPAN, INC.) at a dose of 300 mg/kg from the tail vein as a pretreatment at 24 hr prior to injection of spleen cells. The spleen was aseptically isolated from male C57BL/6 donor mouse (8-week-old, CHARLES RIVER LABORATORIES JAPAN, INC.), minced in RPMI1640 medium (manufactured by Sigma-Aldrich Ltd.), and passed through a stainless mesh to give a splenocyte single cell suspension. After removal of red blood cells by a hypotonic treatment using a mixed solution of 0.83% aqueous ammonium chloride and Tris-HCl buffer (pH 7.65) at 9:1, splenocytes were washed and suspended in physiological saline to give a splenocyte suspension. The prepared cells were injected at 1×10^8 cells/mouse into the tail vein to induce acute GvHR. The compound of the present invention or a pharmaceutically acceptable salt thereof was suspended or dissolved in 0.5% carboxymethylcellulose, and repetitively administered orally at a dose of 3-30 mg/kg body weight for 28 days from the day of splenocyte injection, and the influence on the survival time was evaluated. After induction of acute GvHR, the survival of each individual was determined every day, and the day of confirmed death was taken as the survival time of each individual. As for the survival time, log-rank test analysis was performed using the group administered with vehicle alone as a control, and the multiplicity was adjusted by the Holm's method, wherein p value of 0.05 or below was determined to be significant.

[5] = test system: Mouse Skin Allograft Survival; experiment: Mouse skin allograft survival; format: in vivo; conditions: for median survival time of skin graft: vehicle 9.5
Procedure: A tail skin graft (4×7 mm) of 5- to 7-week-old male AKR mouse (KYUDO Co. Ltd. was) was transplanted on the back of 5- to 7-week-old male C3H mouse (CHARLES RIVER LABORATORIES JAPAN, INC.), covered with aseptic gauze and bandaged. The bandage was removed at day 6 from the transplantation, and the graft was observed every day up to rejection. The rejection of the skin graft was determined to be the time point when 90% or more of the epithelium of the graft turned brown due to necrosis. The number of days from the transplantation to the rejection was taken as the survival time of the graft. The compound of the present invention or a pharmaceutically acceptable salt thereof was suspended or dissolved in 0.5% carboxymethylcellulose, and repetitively administered orally at a dose of 0.3-100 mg/kg body weight once a day for 14 days from the day of transplantation. As for the graft survival time, generalized Wilcoxon test analysis was performed using the group administered with vehicle alone as a control, and the multiplicity was adjusted by the Holm's method, wherein p value of 0.05 or below was determined to be significant.

## COC(=O)C[C@@H]1N=C(c2ccc(-c3ccc(OC)cc3)cc2)c2c(sc(CO)c2C)-n2c(C)nnc21 [Example 234, Methyl (S)-{2-hydroxymethyl-4-(4′-methoxybiphenyl-4-yl)-3,9-dimethyl-6H-thieno[3,2-f][1,2,4]triazolo[4,3-a][1,4]diazepin-6-yl}acetate]
[1]; T-cell, BALB/c mouse T cells, 10 ng/mL PMA and 250 ng/mL anti-CD28 antibody, tritiumthymidine uptake, read-out: CD28-dependent T cell growth suppressive action (IC50)
  IC50: 0.097 µM
[1]; mouse T cells stimulated with PMA and anti-CD28 antibody
  CD28-dependent T cell growth suppressive action (in words): have a CD28-dependent T cell growth suppressive action
[2]
  inhibition in vivo at 3 mg/kg: 53.6%
[3]; 10 mg/kg oral for 3 days, 24 hr later, P <0.05
  suppressing rate (%) of auricular edema: 35.8%
[3]; 10 mg/kg, 24 hr after induction with egg albumin
  suppressive action on edema (in words): significant suppressive action on edema
[4]
  median survival time: 32 days
[5]; 30 mg/kg oral once a day for 14 days, P 0.13
  median survival time of skin graft: 11 days
[5]; 100 mg/kg
  effect on graft survival time (in words): significantly prolonged the graft survival time
[5]; 100 mg/kg oral once a day for 14 days, P <0.05
  median survival time of skin graft: 14 days
